From publication PMC5336612, “Therapeutic effects of different doses of polyethylene glycosylated porcine glucagon-like peptide-2 on ulcerative colitis in male rats” (BMC Gastroenterology, 2017)
Where “and” joins values, the source holds several entries; their conditions need not be identical. Identical values can stand only once. Marks after values point to notes of the source that are not given here. Where no end group is shown, it is not given here.

How the values were obtained:
[1] = test system: experimental rat model of ulcerative colitis (DSS); experiment: Growth performance of DSS colitis rats (body weight, intestinal and colonic length and weight); assay type: in vivo
Method: Animal studies were conducted in accordance with the guidelines of the Zhejiang Farm Animal Welfare Council of China and approved by the ethics committee of Zhejiang Academy of Agricultural Sciences. Thirty-five male Sprague–Dawley rats were allocated into five treatments: control, DSS, DSS + PEG–pGLP-2(L), DSS + PEG–pGLP-2(M) and DSS + PEG–pGLP-2(H). Each treatment was performed in seven replicates on one rat. The rats were housed in a plastic bottom, wire-lid cages, maintained on a 12 h: 12 h light–dark cycle and allowed to acclimatise to the animal facility for 3 days. Rats in control group received only water; other rats were fed with 5% (w/v) DSS through their drinking water for 6 days from the first day of experiment, followed by 2 days of water consumption. The rats from the DSS + PEG–pGLP-2(L), DSS + PEG–pGLP-2(M) and DSS + PEG–pGLP-2(H) groups were intraperitoneally administered with 12.5, 25 and 100 nmol/kg PEG–pGLP-2, respectively, in 0.3 mL of saline solution daily from day 1 to day 6 of the trial. The rats in the control and DSS groups were administered with the same volume of saline solution. During the experimental period, behaviour and body weight were monitored daily. On day 8, all rats were anesthetised and sacrificed to collect their intestinal sample.
Samples collection was prepared as previously described. The segment from the pylorus to the Trietz ligament and from the ileocecal valve to the rectum was considered the duodenum and colon, respectively; these segments were cut free from their mesentery and immediately placed on ice. The duodenum and colon were cleaned of luminal contents, weighed and measured with a balance and a ruler. The middle segments (1 cm) of duodenum and colon were fixed in 10% formalin for 48 h and embedded in paraffin using standard techniques for histology. One centimetre of the distal segment of colon was collected for RNA isolation, which was immediately placed in 1 mL of RNA locker.

[2] = test system: dipeptidyl peptidase-IV (DPP-IV); conditions: in DPP-IV in vitro; cited from earlier work
[3] = test system: colon of DSS colitis rats; experiment: Colonic morphology and colonic damage score (histology); assay type: in vivo, rat; conditions: for Colonic damage score (CDS) of colon / Colon morphological structures: DSS colitis rats; for Colonic damage score (CDS) of colon: compared with DSS group, Fig. 1f; for colonic damage score: extent / colonic damage score: inflammation: grade 0-3; for colonic damage score: extent / colonic damage score: inflammation / colonic damage score: percent involvement / colonic damage score: crypt demage: individual rats, raw data; for colonic damage score: percent involvement: grade (1) 1-25% to (4) 76-100%; for colonic damage score: crypt demage: scale 0-4
Method: Histology was prepared as previously described. The paraffin-embedded sections were cut at 4 μm thickness and stained with haematoxylin and eosin. Duodenum villus-plus-crypt height was imaged using an Olympus DP-71 digital camera, and quantification was performed using an image processing system. Approximately 12 longitudinally oriented villi were measured from each H&E-stained section to make n = 1. All measurements were performed in a blinded manner. Colonic damage score (CDS), was evaluated in a blinded manner in tissue sections based on a grade scale ranging from 0 to 3 to measure the amount and depth of inflammation. The amount of crypt damage or regeneration was measured in a scale of 0–4, as indicated in Dieleman et al.. These changes were also quantified in terms of the percentage involvement of the disease process: (1) 1–25%, (2) 26–50%, (3) 51–75% and (4) 76–100%. Each section was separately scored for each feature by establishing the product of the grade for that feature and the percentage involvement. The sum of the products of the four scores was the CDS for each rat.

IL-1 = experiment: Real-time PCR expression in colon; assay type: in vivo, rat; conditions: DSS colitis rats, compared with DSS group, RT-PCR
Method: (§1) Total RNA was isolated using RNAiso Plus kits following the manufacturers’ instructions. A 2 μL aliquot of the total RNA was used for first-strand cDNA synthesis using PrimeScript® RT-reagent Kit with gDNA Eraser. Real-time PCR was carried out with ABI plus one (Life Technologies, Carlsbad, CA, USA) using SYBR Premix Ex TaqTM. The primers used were in Table 1. RT-PCR analysis was performed with an ABI Step One Plus Real-Time PCR System (Applied Biosystems, Inc.) using SYBR® Premix Ex TaqTM. PCR reactions were performed in triplicate under the following conditions: 95 °C for 30 s; 40 cycles of 95 °C for 5 s and 60 °C for 30 s. Fluorescent data for quantification were collected at the end of each cycle. Melting curve analysis was performed at 55–95 °C to verify the single product generation at the end of the assay. Standard curves were generated based on the data obtained from the standards of the 2–2^−6 dilution series template. Standard curve analysis was performed by using Step One Software (v2.2, Applied Biosystems, Inc.). Data were normalised to GADPH using the 2^−△△Ct quantitation method.

IFN-γ = experiment: Real-time PCR expression in colon; assay type: in vivo, rat; conditions: DSS colitis rats; 25 nmol/kg i.p. daily d1-6 (M); compared with DSS group; RT-PCR
Method: as §1

Claudin-1 = experiment: Real-time PCR expression in colon; assay type: in vivo, rat; conditions: DSS colitis rats, compared with DSS group, RT-PCR
Method: as §1

IL-6 = experiment: Real-time PCR expression in colon; assay type: in vivo, rat; conditions: DSS colitis rats, among the five groups, RT-PCR
Method: as §1

Occludin = experiment: Real-time PCR expression in colon; assay type: in vivo, rat; conditions: DSS colitis rats, compared with DSS group, RT-PCR
Method: as §1

TNF-α = experiment: Real-time PCR expression in colon; assay type: in vivo, rat; conditions: DSS colitis rats, compared with DSS group, RT-PCR
Method: as §1

[4] = 5% DSS colitis, male SD rats, 12.5 nmol/kg i.p. daily d1-6 (L), day 8, mean ± SD
[5] = 5% DSS colitis, male SD rats, 25 nmol/kg i.p. daily d1-6 (M), day 8, mean ± SD
[6] = 5% DSS colitis, male SD rats, 100 nmol/kg i.p. daily d1-6 (H), day 8, mean ± SD
[7] = DSS colitis rats, 12.5 nmol/kg i.p. daily d1-6 (L), individual rats, raw data
[8] = DSS colitis rats, 25 nmol/kg i.p. daily d1-6 (M), individual rats, raw data
[9] = DSS colitis rats, 100 nmol/kg i.p. daily d1-6 (H), individual rats, raw data
[10] = 12.5 nmol/kg i.p. daily d1-6 (L)
[11] = 100 nmol/kg i.p. daily d1-6 (H)

With “polyethylene glycosylated porcine glucagon-like peptide-2 (HGDGSFSDEMNTVLDNLATRDFINWLLHTKITDSL; also: mono-PEGylated with mPEG5k-SPA, site not given here; UniProt P01274 146-180, looked up, variant A2G) [PEG–pGLP-2, mono-PEGylated p[Gly^2]GLP-2 conjugate prepared with mPEG5k-SPA; long-acting form of pGLP-2]” the Body weight change [1, 4] was 21.45 ± 2.00^b %, the Colonic length [1, 4] was 14.74 ± 1.90^a cm and the Intestinal length [1, 4] was 94.50 ± 7.07 cm. For the same substance, the Body weight change [1, 5] was 21.46 ± 4.65^b %, the Colonic length [1, 5] was 14.48 cm and the Intestinal length [1, 5] was 99.10 ± 8.03 cm. The Body weight change [1, 6] was 20.63 ± 3.4^b %, the Colonic length [1, 6] was 13.42 cm and the Intestinal length [1, 6] was 99.56 ± 6.82 cm. For the same substance, the Colonic weight [1, 7] was 3.68 g and 1.94 g and 1.55 g and 1.6 g and 3.59 g and 2.4 g, the Intestinal length [1, 7] was 99.0 cm and 95.0 cm and 102.0 cm and 93.0 cm and the Intestinal weight [1, 7] was 8.25 g and 6.51 g and 7.68 g and 5.4 g and 8.63 g and 9.24 g. The final weight [1, 7] was 240 g and 217 g and 219 g and 157 g and 223 g, the Colonic weight [1, 8] was 3.22 g and 2.19 g and 2.7 g and 2.5 g and 3.3 g and 3 g and the Intestinal weight [1, 8] was 6 g and 6.93 g and 9 g and 8.4 g and 8.73 g and 7.5 g. For the same substance, the final weight [1, 8] was 220 g and 180 g and 246 g and 182 g and 230 g and 212 g, the Colonic length [1, 9] was 14.7 cm and 12.7 cm and 13.7 cm and 13.0 cm and the Colonic weight [1, 9] was 2.55 g and 2.37 g and 1.85 g and 2.2 g and 2.94 g. The Intestinal weight [1, 9] was 10 g and 7.62 g and 7.22 g and 8 g and 7.87 g and 9.26 g, the final weight [1, 9] was 221 g and 218 g and 214 g and 233 g and 219 g and 242 g and the “half-life (t1/2) longer than that of pGLP-2” value [2] was 16 fold. For the same substance, the “Colonic damage score (CDS) of colon” value [3, 10] was “significantly (p < 0.05) decreased”, the Colon morphological structures ([3]; 25 nmol/kg i.p. daily d1-6 (M), Fig. 1d) was “almost normal with no damage” and the “Colonic damage score (CDS) of colon” value ([3]; 25 nmol/kg i.p. daily d1-6 (M)) was “significantly (p < 0.05) decreased”. The Colon morphological structures ([3]; 100 nmol/kg i.p. daily d1-6 (H), Fig. 1e) was “almost normal with no damage”, the “Colonic damage score (CDS) of colon” value [3, 11] was “significantly (p < 0.05) decreased” and the “colonic damage score: extent” value [3, 10] was 0.00 and 1.00. For the same substance, the “colonic damage score: inflammation” value [3, 10] was 1.00 and 2.00, the “colonic damage score: extent” value ([3]; 25 nmol/kg i.p. daily d1-6 (M)) was 0.00 and 1.00 and the “colonic damage score: inflammation” value ([3]; 25 nmol/kg i.p. daily d1-6 (M)) was 2.00 and 1.00. The “colonic damage score: extent” value [3, 11] was 0.00, the “colonic damage score: inflammation” value [3, 11] was 1.00 and 2.00 and the “colonic damage score: percent involvement” value [3, 10] was 0.00 and 1.00. For the same substance, the “colonic damage score: percent involvement” value ([3]; 25 nmol/kg i.p. daily d1-6 (M)) was 0.00 and 1.00, the “colonic damage score: percent involvement” value [3, 11] was 0.00 and 1.00 and the “colonic damage score: crypt demage” value [3, 10] was 0.00 and 1.00. The “colonic damage score: crypt demage” value ([3]; 25 nmol/kg i.p. daily d1-6 (M)) was 0.00 and 3.00 and 1.00, the “colonic damage score: crypt demage” value [3, 11] was 0.00 and 3.00 and the “Expression of IL-1 in colon” value (IL-1; [10]) was “significantly (p < 0.05) decreased”. The “Expression of IL-1 in colon” value (IL-1; 25 nmol/kg i.p. daily d1-6 (M)) was “significantly (p < 0.05) decreased”, the “Expression of IL-1 in colon” value (IL-1; [11]) was “significantly (p < 0.05) decreased” and the “Expression of IFN-γ in colon” value (IFN-γ) was “significantly (p < 0.05) decreased”. For the same substance, the “Expression of claudin-1 in colon” value (Claudin-1; 25 nmol/kg i.p. daily d1-6 (M)) was “significantly (p < 0.05) decreased”, the “Expression of claudin-1 in colon” value (Claudin-1; [11]) was “significantly (p < 0.05) decreased” and the “Expression of IL-6 in colon” value (IL-6; [10]) was “No significant differences”. For the same substance, the “Expression of IL-6 in colon” value (IL-6; 25 nmol/kg i.p. daily d1-6 (M)) was “No significant differences”, the “Expression of IL-6 in colon” value (IL-6; [11]) was “No significant differences” and the “Expression of occludin in colon” value (Occludin; 25 nmol/kg i.p. daily d1-6 (M)) was “significantly (p < 0.05) increased”. For the same substance, the “Expression of occludin in colon” value (Occludin; [11]) was “significantly (p < 0.05) increased”, the “Expression of TNF-α in colon” value (TNF-α; [10]) was “significantly (p < 0.05) decreased” and the “Expression of TNF-α in colon” value (TNF-α; 25 nmol/kg i.p. daily d1-6 (M)) was “significantly (p < 0.05) decreased”. For the same substance, the “Expression of TNF-α in colon” value (TNF-α; [11]) was “significantly (p < 0.05) decreased”.
